# From the OPERA property sets (Mansouri et al. 2018)
# Settings: not given
SMILES,boiling point [°C],melting point [°C],ready biodegradability,log10 Koc (L/kg),log10 vapour pressure (mmHg),log10 Henry constant (atm·m³/mol)
CNC(=O)NC,269,108,not readily biodegradable,–,–,–
Cc1coc2ccccc12,197,–,–,–,–,–
Nc1cccc2cnccc12,–,128,–,–,–,–
C#CCCCCCCCCCCCCC,268,10,–,–,–,–
CCc1ccc2c(c1)CCCC2,244,-70,–,–,–,–
CCCCOC(=O)Nc1ccccc1,–,–,–,2.26,–,–
CC1C2Cc3ccc(O)cc3C1(C)CCN2CCc1ccccc1 (stereo not drawn),–,181,–,–,–,–
OC1c2ccccc2CCc2ccccc21,–,92,–,–,–,–
CCC(=O)OCCOC(=O)CC,211,–,–,–,–,–
CC(=O)Oc1ccccc1C,208,–,–,–,–,–
CC(=O)N=C1C=CC(=O)C=C1,–,74.5,–,–,–,–
NC(=O)Cc1cccc2ccccc12,–,184,–,2,–,–
O=c1oc2ccccc2c(O)c1C1CC(c2ccc(OCc3ccc(C(F)(F)F)cc3)cc2)Cc2ccccc21 (stereo not drawn),–,167,–,–,–,–
CC(O)C(C)O (racemic),182,16.3,–,–,-0.677,–
CCCCCCCOC(=O)CC,210,-50.9,–,–,–,–
NCCc1c[nH]c2ccccc12,–,118,–,–,–,–
CCC(Br)CC,119,-126,–,–,–,–
O=C1CCC(=O)O1,261,119,–,–,-2.82,–
Cc1ccc(C(=O)NN)cc1,–,117,–,–,–,–
OCC(O)CCl (stereo not drawn),–,–,readily biodegradable,–,-0.699,–
O=C(O)C(Cc1ccccc1)Cc1ccccc1,–,90,–,–,–,–
O=C(O)C1CCCN1 (racemic),–,205,–,–,–,–
Cc1c(NC(C)C)c(=O)n(-c2ccccc2)n1C,–,80,–,–,–,–
N#CC(Cl)(Cl)Cl,85.7,-42,–,–,1.87,–
C[C@]12CCC(=O)C=C1CC[C@@H]1[C@@H]2CC[C@@]2(C)[C@H]1CC[C@]2(C)O,–,163,–,–,–,–
c1ccc(-c2ccccc2-c2ccccc2-c2ccccc2)cc1,420,118,–,–,–,–

SMILES,boiling point [°C],melting point [°C],ready biodegradability,log10 Koc (L/kg),log10 vapour pressure (mmHg),log10 Henry constant (atm·m³/mol)
Cc1ccc(-c2ccccc2)cc1C,282,29.5,–,–,–,–
O=C(c1ccc(F)cc1)c1ccc(F)cc1,–,104,–,–,–,–
CCOP(=S)(Oc1ccc(C#N)cc1)c1ccccc1 (stereo not drawn),–,83,–,–,–,–
O=c1[nH]c2ccccc2o1,335,138,–,–,–,–
CCOC(C)(C)C,73.1,-94,–,–,2.09,-2.79
CCOC(=O)[C@H](CCc1ccccc1)N[C@H]1CCc2ccccc2N(CC(=O)O)C1=O,–,148,–,–,–,–
CCCCCCCCCCCC(=O)OC,267,5.2,readily biodegradable,–,-2.39,–
c1ccc(C(=C(c2ccccc2)c2ccccc2)c2ccccc2)cc1,420,225,–,–,–,–
ClCC(Br)CBr (stereo not drawn),196,6,not readily biodegradable,1.85,-0.237,–
COC(=O)c1cc(Cl)ccc1[N+](=O)[O-],–,48.5,–,–,–,–
C#CCOc1ccc(N)cc1C(=O)NCCCC,–,84,–,–,–,–
Cc1cc2nc[nH]c2cc1C,–,206,–,–,–,–
C=C(C)CN(CC)c1c([N+](=O)[O-])cc(C(F)(F)F)cc1[N+](=O)[O-],–,55.5,–,3.6,-4.06,–
S=C=Nc1ccc(Br)cc1,–,60.5,–,–,–,–
O=C(O)Cc1sc(-c2ccccc2)nc1-c1ccc(Cl)cc1,–,162,–,–,–,–
COc1ccc(CN(CCN(C)C)c2ncccn2)cc1.Cl,–,174,–,–,–,–
O=C(O)c1ccc2c(c1)C(=O)c1ccccc1C2=O,–,291,–,–,–,–
O=C(OCC(COC(=O)c1cccnc1)(COC(=O)c1cccnc1)COC(=O)c1cccnc1)c1cccnc1,–,162,–,–,–,–
O=[N+]([O-])c1c(O)ccc2ccccc12,–,104,–,–,–,–
CC(C)ON=O,40,–,–,–,–,–
CC(=O)NC(=O)NC(C)=O,–,154,–,–,–,–
Nc1ccc(C=CC(=O)O)cc1,285,122,–,–,–,–
C=C[C@@](C)(O)CC/C=C(/C)CCC=C(C)C,276,–,–,–,–,–
CCN1CN(CC)CN(CC)C1,208,70,readily biodegradable,–,–,–
Cc1cccc(Cl)c1N,215,2,–,–,–,–
C=CCC[C@@H](C)CC,113,–,–,–,–,–

SMILES,boiling point [°C],melting point [°C],ready biodegradability,log10 Koc (L/kg),log10 vapour pressure (mmHg),log10 Henry constant (atm·m³/mol)
CCN(CC)CCCO,190,–,–,–,–,–
O=C(N/N=C/C=C/c1ccc([N+](=O)[O-])o1)c1ccc([N+](=O)[O-])s1,–,236,–,–,–,–
COc1cc(NC(=O)CC(C)=O)c(OC)cc1Cl,–,–,not readily biodegradable,–,–,–
Cc1ccc([N+](=O)[O-])cc1S(=O)(=O)O,–,–,not readily biodegradable,–,–,–
CC/C=C\CCCC,123,-118,–,–,–,–
CCc1ccsc1,136,-89.1,–,–,–,–
Oc1cccc(-c2ccccc2)c1,–,78,–,–,–,–
O=C(O)[C@@H](CO)c1ccccc1,–,118,–,–,–,–
C[C@@H]1CC[C@H](C)c2ccccc21,226,–,–,–,–,–
O=C(O)c1cc(Br)cc(Br)c1O,–,228,–,–,–,–
Cc1ccc2cccc(O)c2n1,267,73.8,–,–,–,–
O=C(O)COc1c(Cl)ccc(Cl)c1Cl,–,148,–,–,–,–
CCCCCC(=O)OC(=O)CCCCC,–,-41,–,–,–,–
COC(=O)c1ccncc1,208,16.1,–,–,–,–
Nc1cccc(-n2ccccc2=O)c1,–,183,–,–,–,–
CCCCCCCCCCCCCC(=O)N(CCO)CCO,–,–,readily biodegradable,–,–,–
O=C(O)CCCCCCCCCCCCC1C=CCC1 (stereo not drawn),–,68.5,–,–,–,–
O=C(O)CCCCC1CCSS1 (stereo not drawn),–,60.5,–,–,–,–
CCCCC(C)C(C)C (stereo not drawn),140,-116,–,–,–,–
CC1=CC(=O)C(C2=C(O)C(=O)C(C)=CC2=O)=C(O)C1=O,–,230,–,–,–,–
C1CNC1,63,–,–,–,2.25,–
FCCCBr,101,–,–,–,–,–
C/C=C(\C)C(=O)O,198,64.5,–,–,-0.875,–
COP(=S)(OC)SCSc1ccc(Cl)cc1,–,–,–,4.67,–,–
CC(C)OP(=O)(OC(C)C)SCc1ccccc1,–,–,–,2.26,-4.39,–
CCCCCCCC(=O)O,239,16.3,readily biodegradable,–,-2.43,–

SMILES,boiling point [°C],melting point [°C],ready biodegradability,log10 Koc (L/kg),log10 vapour pressure (mmHg),log10 Henry constant (atm·m³/mol)
O=Cc1ccc([N+](=O)[O-])o1,228,35.5,readily biodegradable,–,–,–
CC(C)CN(CCO)CC(C)C,214,–,–,–,–,–
CNC(=O)Oc1ccccc1OC(C)C,–,87,readily biodegradable,1.67,-5.01,–
CCCC(c1ccc(O)cc1)c1ccc(O)cc1,–,137,–,–,–,–
C=CC(N)=O,193,84.5,readily biodegradable,1.7,-2.15,–
c1ccc(C2=N[C@H](c3ccccc3)[C@@H](c3ccccc3)N2)cc1,–,134,–,–,–,–
C/C=C\CC(C)(C)C,107,–,–,–,–,–
CC(C)(N=C=O)c1cccc(C(C)(C)N=C=O)c1,–,–,–,–,-2.49,–
CCCCCCCl,135,-94,–,–,0.972,-1.62
CCCC1CCCC(C)C1 (stereo not drawn),164,–,–,–,–,–
C=CC(=O)OCC(CC)(COC(=O)C=C)COC(=O)C=C,–,–,not readily biodegradable,–,–,–
CCCCCC/C=C\CCCCCCCC(=O)O,–,0.2,–,–,–,–
O=C(O)C1C(C(=O)O)C2(Cl)C(Cl)=C(Cl)C1(Cl)C2(Cl)Cl (stereo not drawn),–,209,not readily biodegradable,2.79,–,–
N#CCCS(=O)(=O)O.[Na+],–,244,–,–,–,–
CC(C)Oc1cccc(NC(=O)c2ccccc2C(F)(F)F)c1,–,104,–,–,-7.31,–
Clc1ccc(-c2ccc(Cl)c(Cl)c2Cl)c(Cl)c1,–,–,–,–,–,-4.18
N#CSc1ccccc1,232,–,–,–,–,–
C/C=C/C(C)CC (stereo not drawn),87.6,-126,–,–,–,–
CCCC=Cc1ccccc1,217,–,–,–,–,–
CC1(C)CCCc2ccccc21,221,–,–,–,–,–
CN1[C@@H]2CCC[C@H]1CC2,166,–,–,–,–,–
CCCCc1ccc(O)cc1,248,22,–,–,-2.65,–
C1CC[C@@H]2NCCC[C@@H]2C1,206,-40,–,–,–,–

# Same assay, conditions: fish
SMILES,log10 biotransformation half-life (days),log10 BCF
Clc1ccc(-c2c(Cl)cc(Cl)c(Cl)c2Cl)cc1,1.84,–
Brc1cc(Br)c(-c2ccccc2)c(Br)c1,1.25,3.87
ClCC(Br)CBr (stereo not drawn),-1.14,1.06
"CC1(C)[C@H](C(=O)O[C@@H](C#N)c2cccc(Oc3ccccc3)c2)[C@@H]1C=C(Cl)Cl (single isomer, unassigned)",0.7,–
CCCCC(C)C(C)C (stereo not drawn),1.28,–
CC(C)OP(=O)(OC(C)C)SCc1ccccc1,-1.2,0.94
O=C(O)C1C(C(=O)O)C2(Cl)C(Cl)=C(Cl)C1(Cl)C2(Cl)Cl (stereo not drawn),–,0.32
CC(C)Oc1cccc(NC(=O)c2ccccc2C(F)(F)F)c1,-0.61,1.29
